Measured values taken from PubChem BioAssay AID1199 (EPA DSSTox, 2008).
Calls of active or inactive are those of the source.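 The calls were made as follows: active = a tumour-causing dose and a tumour site recorded for mice in at least one sex group; inconclusive = only government mouse studies exist and were judged inadequate; inactive = mouse studies exist but none gave tumours.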

These compounds were tested on mouse carcinogenicity bioassay, TD50 from CPDB (assay: DSSTox (CPDBAS) Carcinogenic Potency Database Summary Mouse Bioassay Results). Settings: TD50_Mouse_Note: TD50 is harmonic mean of more than one positive test; TargetSites_Mouse_Female: hematopoietic system; lung.
Outline: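 Values are TD50 carcinogenic potencies from mouse chronic bioassays, taking the most positive result for each sex-species. Sources are published literature and NCI/NTP studies; target sites reflect author-reported positive findings.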

Structure (SMILES) | Potency
NNC(=O)c1ccccc1 | 0.0704 mmol/kg/day
CCCCNNCCCC | 0.213 mmol/kg/day

Same assay, conditions: TD50_Mouse_Note: TD50 is harmonic mean of more than one positive test; TargetSites_Mouse_Female: liver

Structure (SMILES) | Potency
Cc1ccc(N=Nc2c(O)c(S(=O)(=O)O)cc3ccc(S(=O)(=O)O)cc23)c(C)c1 | 1.49 mmol/kg/day
CCCCC(CC)COC(=O)CCCCC(=O)OCC(CC)CCCC (stereo unspecified) | 10.5 mmol/kg/day
C=CC(O)c1ccc2c(c1)OCO2 (stereo unspecified) | 0.4 mmol/kg/day
ClC(Cl)Br | 0.291 mmol/kg/day

Same assay, conditions: TD50_Mouse_Note: TD50 is harmonic mean of more than one positive test; TargetSites_Mouse_Female: liver; lung; stomach

Structure (SMILES) | Potency
CC[C@H](C)C(=O)O[C@H]1C[C@@H](C)C=C2C=C[C@H](C)[C@H](CC[C@@H]3C[C@@H](O)CC(=O)O3)[C@H]21 | 1.27 mmol/kg/day

Same assay, conditions: TD50_Mouse_Note: TD50 is harmonic mean of more than one positive test; TargetSites_Mouse_Female: liver; stomach

Structure (SMILES) | Potency
CC(=O)O[C@]1(C(C)=O)CC[C@H]2[C@@H]3C=C(Cl)C4=CC(=O)[C@@H]5C[C@@H]5[C@]4(C)[C@H]3CC[C@@]21C | 0.0525 mmol/kg/day

Same assay, conditions: TD50_Mouse_Note: TD50 is harmonic mean of more than one positive test; TargetSites_Mouse_Female: liver; vascular system

Structure (SMILES) | Potency
Cc1cc2c(nc1N)[nH]c1ccccc12 | 0.0863 mmol/kg/day

Same assay, conditions: TD50_Mouse_Note: TD50 is harmonic mean of more than one positive test; TargetSites_Mouse_Female: lung; nervous system

Structure (SMILES) | Potency
CN(C)N=O | 0.00255 mmol/kg/day

Same assay, conditions: TD50_Mouse_Note: TD50 is harmonic mean of more than one positive test; TargetSites_Mouse_Female: stomach

Structure (SMILES) | Potency
ClCc1cccnc1 | 1.4 mmol/kg/day

Same assay, conditions: TD50_Mouse_Note: TD50 is harmonic mean of more than one positive test; TargetSites_Mouse_Female: urinary bladder

Structure (SMILES) | Potency
CCS(=O)(=O)c1ccc(S(N)(=O)=O)c2ccccc12 | 0.0705 mmol/kg/day

Same assay, conditions: TD50_Mouse_Note: TD50 is harmonic mean of more than one positive test; TargetSites_Mouse_Female: vascular system

Structure (SMILES) | Potency
CC(=O)NNc1ccccc1 | 0.341 mmol/kg/day
NNc1ccc(C(=O)O)cc1 | 2.97 mmol/kg/day

Same assay, conditions: TD50_Mouse_Note: TD50 is harmonic mean of more than one positive test; greater than ten-fold variation among TD50 values for positive res; TargetSites_Mouse_Female: liver; lung; TargetSites_Mouse_BothSexes: mammary gland

Structure (SMILES) | Potency
NNC(=O)c1ccncc1 | 0.198 mmol/kg/day

Same assay, conditions: TD50_Mouse_Note: no positive results

Structure (SMILES) | outcome
CC12CCC(CC1)C(C)(C)O2 | inactive; no positive results
C[N+](C)(C)CCO | inactive; no positive results

Same assay, conditions: TD50_Mouse_Note: no positive results; TargetSites_Mouse_Female: no positive results

Structure (SMILES) | outcome
O=[N+]([O-])c1ccc(Cl)c([N+](=O)[O-])c1 | inactive; no positive results
COc1ccc2c3c1O[C@H]1[C@@H](O)C=C[C@H]4[C@@H](C2)N(C)CC[C@@]341 | inactive; no positive results
Cc1ccc(OP(=O)(Oc2ccc(C)cc2)Oc2ccc(C)cc2)cc1 | inactive; no positive results
OC[C@@H](O)[C@H]1O[C@@H]2O[C@H](C(Cl)(Cl)Cl)O[C@@H]2[C@H]1O | inactive; no positive results
CC(=O)Nc1ccc(C(=O)CCl)cc1 | inactive; no positive results
O=Nc1ccc(NO)cc1 | inactive; no positive results
CC(C)(C)NC[C@H](O)COc1cccc2c1CCCC2=O | inactive; no positive results
CN(C)CCO | inactive
CN(C)C(=O)NC1CC2CC1C1CCCC21 (stereo unspecified) | inactive; no positive results
FC(F)OC(F)(F)C(F)Cl (stereo unspecified) | inactive; no positive results
O=[N+]([O-])c1cccc2ccccc12 | inactive; no positive results
CCCCOC(=O)c1ccccc1C(=O)OCc1ccccc1 | inactive; no positive results
S=c1[nH]c2ccccc2s1 | inactive; no positive results
CCN(CC)C(=O)c1cccc(C)c1 | inactive; no positive results
Nc1nc(N)nc(N)n1 | inactive; no positive results
CC1=C(/C=C/C(C)=C/C=C/C(C)=C/C=C/C=C(C)/C=C/C=C(C)/C=C/C2=C(C)CCCC2(C)C)C(C)(C)CCC1 | inactive; no positive results
CCOP(=S)(OCC)Oc1ccc2c(C)c(Cl)c(=O)oc2c1 | inactive; no positive results
[Cl-].[Cl-].[Hg+2] | inactive; no positive results
CN(C)[C@@H]1C(=O)C(C(N)=O)=C(O)[C@@]2(O)C(=O)C3=C(O)c4c(O)cccc4[C@@](C)(O)[C@H]3C[C@@H]12 | inactive; no positive results
C[C@H](CCC(=O)O)[C@H]1CC[C@H]2[C@@H]3CC[C@@H]4C[C@H](O)CC[C@]4(C)[C@H]3CC[C@]12C | inactive; no positive results
CC#N | inactive; no positive results
CCCCNC(=O)NS(=O)(=O)c1ccc(C)cc1 | inactive; no positive results
CC1(C)S[C@@H]2[C@H](NC(=O)COc3ccccc3)C(=O)N2[C@H]1C(=O)O | inactive; no positive results
NNc1ccc(C(=O)O)cc1 | inactive
CN=C(NC#N)NCCSCc1nc[nH]c1C | inactive
COc1cc(/C=C/C(=O)O[C@H]2CC[C@]34C[C@]35CC[C@]3(C)[C@@H]([C@H](C)CCC=C(C)C)CC[C@@]3(C)[C@@H]5CC[C@H]4C2(C)C)ccc1O | inactive; no positive results
C=C1C[C@]23C[C@@]1(O)CC[C@H]2[C@@]12C=C[C@H](O)[C@@](C)(C(=O)O1)[C@H]2[C@@H]3C(=O)O | inactive; no positive results
CCCCCCCCCc1ccc(OCCOCCO)cc1 | inactive
CN(C)C(=S)SC(=S)N(C)C | inactive; no positive results
O=NN(c1ccccc1)c1ccccc1 | inactive; no positive results

Same assay, conditions: TargetSites_Mouse_BothSexes: no positive results

Structure (SMILES) | outcome
CC(=O)C(N=Nc1ccc(Cl)cc1Cl)C(=O)Nc1ccc(-c2ccc(NC(=O)C(N=Nc3ccc(Cl)cc3Cl)C(C)=O)c(C)c2)cc1C (stereo unspecified) | inactive
Cc1cc(C)c(S(=O)(=O)O)cc1N=Nc1cc(S(=O)(=O)O)c2ccccc2c1O | inactive
O=C(O)C1[O][Sb]2[O]C(=O)C([O]2)C(C(=O)O)[O][Sb]2[O]C(=O)C1[O]2 (stereo unspecified) | inactive

Same assay, conditions: TargetSites_Mouse_Female: liver

Structure (SMILES) | Potency
Nc1ccc(N=Nc2ccccc2)c(N)n1 | 0.285 mmol/kg/day
Nc1ccc(Cc2ccc(N)c(Cl)c2)cc1Cl | 0.196 mmol/kg/day
CCCN(CCC)S(=O)(=O)c1ccc(C(=O)O)cc1 | 1.89 mmol/kg/day

Same assay, conditions: TargetSites_Mouse_Female: liver; ovary

Structure (SMILES) | Potency
O=[N+]([O-])c1ccc2c3c(cccc13)CC2 | 0.23 mmol/kg/day

Same assay, conditions: TargetSites_Mouse_Female: no positive results

Structure (SMILES) | Potency
CC(=O)N[C@@H](CC(C)C)C(=O)N[C@@H](CC(C)C)C(=O)N[C@H](C=O)CCCN=C(N)N | 0.131 mmol/kg/day

Same assay, conditions: TargetSites_Mouse_Female: stomach

Structure (SMILES) | Potency
NNc1nc(-c2ccc([N+](=O)[O-])o2)cs1 | 0.0725 mmol/kg/day
